Reference: US20050214217A1 (priority 2004, published 2005)
Entries after “also recorded” stand apart in the source; their conditions may differ.

What was measured:
[1] = tested on: normal human T-cells; test: T-cell adhesion assay to fibronectin and laminin; type: cell-based; conditions: for Blocking of the glutamate effect on integrin-mediated T-cell adhesion to laminin and fibronectin: Glutamate 10 nM
Procedure: Adhesion of untreated cells (BG) serves as a control. The results are expressed as the OD405 of the lysed, fibronectin- or laminin-adherent cells remaining after incubation and repeated washings.
Adhesion of T-cells to fibronectin and laminin was assayed as follows: normal human T-cells, purified from a fresh blood sample, were suspended (1×10^6 cells/ml) in rest medium (RPMI-1640, supplemented with 10% fetal calf serum (Sigma Chemical Co., St. Louis, Mo.), 1% antibiotics, 1% glutamine (Biological Industries, Beit Haemek, Israel) and 0.4% fungizone (GibcoBRL, Life Technologies Ltd., Paisley, Scotland)). […] Following incubation the cells were washed and resuspended in adhesion medium (RPMI-1640 supplemented with 0.1% bovine serum albumin (BSA, Sigma)). The cells were then seeded in 96 well flat-bottomed microtiter plates (Falcon, Becton Dickinson, Heidelberg, Germany, 1×10^5 cells/100 μl/well pre-coated with fibronectin or laminin (ICN Biomedicals Inc., Aurora, Ohio, […], 18 hours, 4° C.). Cells treated with phorbol 12-myristate 13-acetate (PMA, Sigma, 10 ng/ml) served as a positive control. The adhesion plates were incubated (37° C., 30 minutes, 7.5% CO2 humidified incubator), and then washed several times with PBS to remove non-adherent T-cells. The adhered cells were lysed by adding 60 μl/well of lysis-substrate solution (0.5% Triton X-100 in water mixed with an equal volume of 7.5 mM p-nitrophenol-N-acetyl-β-D-glucosaminide (Sigma, St. Louis, Mo.) in 0.1M citrate buffer pH=5.0). The plates were then incubated for 18 h in a CO2-devoid 37° C. incubator, and the reaction was stopped by the addition of […] of 50 mM glycine (Sigma, St Louis, Mo.) pH=10.4, containing 5 mM EDTA. The optical density (OD) was measured at 405 nm in a standard ELISA reader. The OD was converted to actual number of cells using a standard curve performed in each experiment.

[2] = tested on: Bomapin mRNA in peripheral human T-cells; test: Bomapin expression by quantitative RT-PCR in peripheral human T-cells; type: cell-based
Procedure: PCR was performed for 30 cycles. The ethidium bromide bands corresponding to the amplified bomapin transcripts were quantified by AlphaEase program (Alpha Innotech, San Leandro, Calif., USA). Each PCR tube contained four oligonucleotides primers, two for the Bomapin and two for the internal control (S-14).
Neurotransmitters, agonists and antagonists were added and the cells were incubated at 37 C°, 5% CO2 for up to 72 hours, as indicated for individual experiments. The incubated T-cells were then collected and used for further experimentation.
Total RNA was extracted by using Trizol RNA isolation reagent (Molecular Research Center, Cincinnati, Ohio) based on the acid guanidinium thiocyanate-phenol-chloroform extraction method, according to manufacturer recommendations. RT-PCR was used to amplify the levels of endogenous Bomapin mRNA that may be present in the peripheral human T-cells and in the Jurkat cells (a human mature leukemic cell line that phenotypically resembles resting human T lymphocytes). The expression of the ribosomal protein S-14, derived from the same tissue preparations, served as an internal control. Each reaction contained four oligonucleotides primers, two for Bomapin and two for the internal control S-14. PCR conditions were: cDNA equivalent to 50 ng RNA was amplified for 30 cycles, the annealing temperature was 60° C. and the final MgCl2 concentration was 2.5 mM. […]

[3] = tested on: GluR3 mRNA in normal human T-cells; test: GluR3 mRNA expression by RT-PCR; type: cell-based; conditions: Glutamate 10 mM, 24 hours
Text: FIGS. 10A and 10B are ethidium bromide stained gels of RT-PCR amplified cDNA from two similar experiments.
Total RNA was extracted from cultured T-cells using Trizol RNA isolation reagent (Molecular Research Center, Cincinnati, Ohio) based on the acid guanidinium thiocyanate-phenol-chloroform extraction method, according to manufacturer recommendations. […] The expression of the ribosomal protein S-14, derived from the same cell preparations, served as an internal control. Each reaction contained four oligonucleotides primers, two for GluR3 and two for the internal control S-14. PCR conditions were: cDNA equivalent to 50 ng RNA was amplified for 30 cycles, the annealing temperature was 60° C. and the final MgCl2 concentration was 2.5 mM. The Taq DNA polymerase used in this study was the BIO-X-ACT DNA polymerase (Bioline UK Ltd., London. UK). The PCR products were separated electrophoretically on a 1.5% agarose gel containing ethidium bromide, and visualized under UV light.
GluR3—5′[…] 3′ (SEQ. ID NO: 8) and 5′ […] 3′ (SEQ ID NO: 9) corresponding to nucleotides 699-718 (sense) and 1312-1331 (antisense) respectively. The predicted size of the band is […].

[4] = tested on: human T-cell lukemia (Jurkat) cells; test: Bomapin expression in Jurkat cells; type: cell-based
Text: Total RNA was extracted by using Trizol RNA isolation reagent (Molecular Research Center, Cincinnati, Ohio) based on the acid guanidinium thiocyanate-phenol-chloroform extraction method, according to manufacturer recommendations. RT-PCR was used to amplify the levels of endogenous Bomapin mRNA that may be present in the peripheral human T-cells and in the Jurkat cells (a human mature leukemic cell line that phenotypically resembles resting human T lymphocytes). The expression of the ribosomal protein S-14, derived from the same tissue preparations, served as an internal control. Each reaction contained four oligonucleotides primers, two for Bomapin and two for the internal control S-14. PCR conditions were: cDNA equivalent to 50 ng RNA was amplified for 30 cycles, the annealing temperature was 60° C. and the final MgCl2 concentration was 2.5 mM. The Taq DNA polymerase used in this study was the BIO-X-ACT DNA polymerase (Bioline UK Ltd., London. UK). The PCR products were separated electrophoretically on a 1.5% agarose gel containing ethidium bromide, and visualized under UV light.

[5] = tested on: normal human T-cells; test: In-vitro chemotactic migration assay towards SDF-1; type: cell-based; conditions: pre-treatment 66 hours, Glutamate 10^−8, fibronectin-coated filters
Procedure: FIG. 8 illustrates the Glutamate-induced migration of normal human T-cells towards the chemokine SDF-1. […] The cells in each experimental group were counted by FACSORT. The results are expressed as the number of fluorescently-labeled migrating Glutamate-treated T-cells vs. untreated controls (Untreated).
The cells were then washed, resuspended in adhesion medium, and added to the upper chambers (2×10^5 cells per 100 μl well) of a 24-well chemotaxis microchamber plate (Corning Inc., Corning, N.Y.). The two compartments of the microchambers were separated by polycarbonate filters ([…]) pre-coated with fibronectin or laminin ([…], about 1.5 hour, 37° C.). The lower chambers contained adhesion medium, which was supplemented, where indicated, with 100-250 ng/ml of the chemokine stromal cell-derived factor 1a (SDF-1a, Peprotech Inc., Rocky Hill, N.J.). The chemotaxis microchamber plate was incubated (3 hours, 37° C., 7.5% CO2 humidified incubator), the filter-containing upper chambers were gently removed and the contents of the individual lower chambers (containing the migrated cells) thoroughly mixed by pipetting and transferred into clean tubes. The number of cells in each tube was determined by FACSORT. Counting time for all the experimental groups was two minutes. […]

[6] = tested on: cloned resting human Th2 cells (clone 401); test: Cytokine secretion by ELISA, resting cloned Th2 cells; type: cell-based; conditions: 10^−8 M Glutamate, no antigen stimulation, versus untreated
Procedure: The results are expressed as pg/ml IL-4. Note the clear induction of IL-4 secretion in the Glutamate-treated cells, absent in the non-activated cells.
(§1) Human T-cell clones were prepared essentially as described by Besser M and Wank J (Besser M and Wank J, J Immunol 1999; 162:6303-306): Human PBMC were purified from whole blood by Ficoll gradient (Amersham Pharmacia Biotech, Freiburg, Germany). CD4^+ Th (T-helper) cells were isolated by using CD4 mAbs coupled to magnetic beads (Dynal, Hamburg, Germany). T cells were cultured at 1-2×10^6 cells/ml either in the presence of 1% PHA (Difco, Hamburg, Germany), 20 μg of anti-CD3 (OKT-3, Cilag, Sulzbach, Germany)-precoated plates in combination with IL-2 (20 U/ml) or IL-4 (100 U/ml), or with 100 ng/ml neurotrophins (Prepro, London, England), 20 U/ml IL-2 (Chiron, Ratingen, Germany), 100 U/ml IL-4 (Genzyme, Ruesselsheim, Germany) or 500 U/ml IFN-γ (Thomae, Bicherach an der Riss, Germany) alone. RPMI 1640 culture medium (Life Technologies, Eggenstein, Germany) was supplemented with 10% FCS (Life Technologies). […] Constitutive expression in immune cell bulk cultures was assessed immediately after cell separation, in cloned T lymphocytes after 3 days without further addition of IL-2.
(§2) Cytokine levels were measured in supernatants from Glutamate stimulated human T-cell cultured as described hereinabove. […]

[7] = tested on: cloned human Th1 cells (clone 305); test: IFN-γ secretion by ELISA, activated (alloprimed) cloned Th1 cells; type: cell-based; conditions: 20 hours, 10^−8M Glutamate plus mismatched allopriming B cells, versus antigen stimulation alone
Procedure: (§3) The results are expressed as pg/ml IFN-γ.
as §1, with “Technologies). Alloprimed PBMC were seeded at 0.4 cell/well on allogeneic specific feeder layer.” for “Technologies).”
as §2

[8] = tested on: cloned human Th0 cells (clone 234); test: IFN-γ secretion by ELISA, activated (alloprimed) cloned Th0 cells; type: cell-based; conditions: 20 hours, 10^−8M Glutamate plus mismatched allopriming B cells, versus antigen stimulation alone
Procedure: as §3
as §1, with “Technologies). Alloprimed PBMC were seeded at 0.4 cell/well on allogeneic specific feeder layer.” for “Technologies).”
as §2

[9] = tested on: human peripheral lymphocytes; conditions: cited from earlier work
[10] = tested on: resting human peripheral T-cells; test: Gene expression analysis with Atlas human cDNA expression array; type: cell-based; conditions: Glutamate 10 nM, 72 hours, autoradiography and densitometry
Text: FIGS. 1A-1D are tables illustrating the Glutamate-induced regulation of specific gene expression in the human T-cell, through analysis of gene expression using the atlas human cDNA expression array. […] The cDNA was hybridized to the atlas membranes according to the manual, and expression was visualized by autoradiography. […] Note the enhanced expression of T-cell genes such as Rapamycin-selective-25 KD Immunophilin (FKBP-25), Heat shock protein 40 (Hsp 40), Cathepsin E presursor, Carbonic anhydrase-related protein (carp) (ca-viii), peptidyl-glycine alpha-amidating monooxygenase presursor (pam), and axonemal dynein heavy chain (fragment) as well as of genes whose expression has been previously undetected in T cells such as Stimulator of Fe Transport (SFT), oviductal glycoprotein, Clathrin light chain, Protein Inhibitor of Activated STAT (PIAS) and Cartilage Intermediate Layer Protein (CILP) (FIG. 1A).
Hybridizations to the Atlas Human cDNA Expression Arrays membranes (Catalog No. 1.2 KIII (7850-1) and III (7855-1), Clontech Laboratories) were performed by Clonetech Laboratories, as described in the user manual. Analysis of the expression pattern of up and down regulated genes, as compared to that of untreated T-cells, was performed by Clontech, as described in their manual. […]

[11] = tested on: cloned resting human Th1 cells (clone 305); test: Cytokine secretion by ELISA, resting cloned Th1 cells; type: cell-based; conditions: 10^−8 M Glutamate, versus untreated
Procedure: The results are expressed as pg/ml IL-10.
The results are expressed as pg/ml IL-4.
as §1, with “Technologies). Alloprimed PBMC were seeded at 0.4 cell/well on allogeneic specific feeder layer.” for “Technologies).”
as §2

[12] = CNQX added to Glutamate during incubation
[13] = 10^−8M Glutamate, 30 minutes, versus untreated (BG)
[14] = PHA or mAb activated human peripheral lymphocytes

SMILES: N#Cc1cc2[nH]c(=O)c(=O)[nH]c2cc1[N+](=O)[O-] [CNQX]
- Effect on Glutamate-mediated fibronectin binding [1, 12]: strongly inhibits
- Effect on Glutamate-mediated laminin binding [1, 12]: strongly inhibits
- Blocking of the glutamate effect on integrin-mediated T-cell adhesion to laminin and fibronectin [1]: blocked specifically
- Glutamate-induced Bomapin transcripts in the presence of antagonist ([2]; T-cells treated with Glutamate in the presence of CNQX): absence of detectable Bomapin transcripts

SMILES: N[C@@H](CCC(=O)O)C(=O)O [Glutamate]
- T-cell adhesion to fibronectin [1, 13]: significant increase
- T-cell adhesion to laminin [1, 13]: significant increase
- RT-PCR-amplified GluR3 cDNA transcripts [3]: absence of RT-PCR-amplified GluR3 Glutamate receptor cDNA transcripts
- Bomapin expression [4]: induces expression
- Migration towards the chemoattractant SDF-1 (number of migrating cells) [5]: significantly augments
- IL-4 secretion [6]: strong release of IL-4
- IFN-γ secretion [7]: additional significant IFN-γ secretion
- IFN-γ secretion [8]: additional significant IFN-γ secretion
- Bomapin mRNA level versus untreated cells ([2]; Glutamate 10 nM, 72 hours, 30 PCR cycles, S-14 internal control): about 6 fold
- Ca++ influx and proliferation in activated lymphocytes [9, 14]: induction of Ca^++ influx and proliferation
- Effect on unstimulated, resting lymphocytes ([9]; high levels (1 mM) of Glutamate): no effect
- Differential pattern of gene expression versus untreated cells [10]: induced the over expression of mRNA encoding for several genes; also recorded: down-regulated the expression of others
- IL-4 secretion ("forbidden" cytokine) [11]: significant induction
- IL-10 secretion ("forbidden" cytokine) [11]: significant induction

SMILES: NS(=O)(=O)c1cccc2c1c([N+](=O)[O-])cc1nc(O)c(O)nc12 [NBQX, reference compound]
- Blocking of the glutamate effect on integrin-mediated T-cell adhesion to laminin and fibronectin [1]: blocked specifically
- Effect on Glutamate potentiation in activated lymphocytes [9, 14]: inhibition of Glutamate potentiation

SMILES: O=C(O)c1cc(=O)c2ccccc2[nH]1 [KYNA, reference compound]
- Effect on Glutamate potentiation in activated lymphocytes [9, 14]: inhibition of Glutamate potentiation
